Laboratory results reported in patent US11447466B2, “Substituted indole compounds useful as inhibitors of TLR7/8/9” (BRISTOL-MYERS SQUIBB COMPANY, priority 2017, dated 2022).

Assays:
Format in all cases: cell-based
human TLR7 = target: T1, human TLR7 (Homo sapiens, UniProt Q9NYK1); experiment: TLR7 inhibition reporter assay (HEK-Blue SEAP reporter, gardiquimod stimulation); details: HEK-Blue cells overexpressing human TLR7, SEAP reporter, gardiquimod 7.5 μM, 22 hour incubation
T1 construct: host or cells: HEK-Blue cells
T1 sequence (Q9NYK1 27-1049): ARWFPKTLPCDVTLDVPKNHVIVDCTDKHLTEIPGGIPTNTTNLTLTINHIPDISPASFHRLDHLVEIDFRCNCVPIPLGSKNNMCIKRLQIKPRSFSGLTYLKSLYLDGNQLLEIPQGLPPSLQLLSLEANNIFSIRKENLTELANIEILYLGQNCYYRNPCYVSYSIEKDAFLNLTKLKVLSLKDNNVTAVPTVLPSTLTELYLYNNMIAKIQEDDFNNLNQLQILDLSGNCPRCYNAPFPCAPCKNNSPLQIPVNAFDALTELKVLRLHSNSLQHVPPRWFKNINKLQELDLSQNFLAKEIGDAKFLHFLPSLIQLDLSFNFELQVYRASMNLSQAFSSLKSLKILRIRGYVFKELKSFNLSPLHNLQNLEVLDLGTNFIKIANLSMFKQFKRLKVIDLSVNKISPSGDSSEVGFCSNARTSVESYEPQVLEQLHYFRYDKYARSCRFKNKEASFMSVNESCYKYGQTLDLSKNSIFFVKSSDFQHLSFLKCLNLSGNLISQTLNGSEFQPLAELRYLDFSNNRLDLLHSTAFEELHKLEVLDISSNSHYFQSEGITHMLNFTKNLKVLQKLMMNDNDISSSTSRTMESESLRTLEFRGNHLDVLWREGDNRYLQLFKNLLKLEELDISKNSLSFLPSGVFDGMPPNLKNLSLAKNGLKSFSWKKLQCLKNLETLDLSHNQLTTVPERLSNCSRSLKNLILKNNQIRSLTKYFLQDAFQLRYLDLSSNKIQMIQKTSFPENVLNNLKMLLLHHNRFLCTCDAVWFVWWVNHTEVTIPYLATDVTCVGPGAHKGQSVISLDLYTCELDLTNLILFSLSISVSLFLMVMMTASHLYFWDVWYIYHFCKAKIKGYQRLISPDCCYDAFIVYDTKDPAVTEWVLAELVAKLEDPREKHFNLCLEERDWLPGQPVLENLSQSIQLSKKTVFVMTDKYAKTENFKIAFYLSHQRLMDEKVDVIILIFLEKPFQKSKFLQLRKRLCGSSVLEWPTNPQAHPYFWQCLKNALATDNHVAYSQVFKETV
Procedure, shortened: (§1)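 HEK-Blue cells overexpressing human TLR7, TLR8 or TLR9 carry a SEAP reporter driven by NF-κB/AP-1 sites. Compounds (0.05 nM–50 μM) were preincubated 30 min at room temperature, then cells were stimulated with gardiquimod 7.5 μM (TLR7), R848 15.9 μM (TLR8) or ODN2006 5 nM (TLR9) for 22 h at 37 °C.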

human TLR8 = target: T2, human TLR8 (Homo sapiens, UniProt Q9NR97); experiment: TLR8 inhibition reporter assay (HEK-Blue SEAP reporter, R848 stimulation); details: HEK-Blue cells overexpressing human TLR8, SEAP reporter, R848 15.9 μM, 22 hour incubation
T2 construct: host or cells: HEK-Blue cells
T2 sequence (Q9NR97 27-1041): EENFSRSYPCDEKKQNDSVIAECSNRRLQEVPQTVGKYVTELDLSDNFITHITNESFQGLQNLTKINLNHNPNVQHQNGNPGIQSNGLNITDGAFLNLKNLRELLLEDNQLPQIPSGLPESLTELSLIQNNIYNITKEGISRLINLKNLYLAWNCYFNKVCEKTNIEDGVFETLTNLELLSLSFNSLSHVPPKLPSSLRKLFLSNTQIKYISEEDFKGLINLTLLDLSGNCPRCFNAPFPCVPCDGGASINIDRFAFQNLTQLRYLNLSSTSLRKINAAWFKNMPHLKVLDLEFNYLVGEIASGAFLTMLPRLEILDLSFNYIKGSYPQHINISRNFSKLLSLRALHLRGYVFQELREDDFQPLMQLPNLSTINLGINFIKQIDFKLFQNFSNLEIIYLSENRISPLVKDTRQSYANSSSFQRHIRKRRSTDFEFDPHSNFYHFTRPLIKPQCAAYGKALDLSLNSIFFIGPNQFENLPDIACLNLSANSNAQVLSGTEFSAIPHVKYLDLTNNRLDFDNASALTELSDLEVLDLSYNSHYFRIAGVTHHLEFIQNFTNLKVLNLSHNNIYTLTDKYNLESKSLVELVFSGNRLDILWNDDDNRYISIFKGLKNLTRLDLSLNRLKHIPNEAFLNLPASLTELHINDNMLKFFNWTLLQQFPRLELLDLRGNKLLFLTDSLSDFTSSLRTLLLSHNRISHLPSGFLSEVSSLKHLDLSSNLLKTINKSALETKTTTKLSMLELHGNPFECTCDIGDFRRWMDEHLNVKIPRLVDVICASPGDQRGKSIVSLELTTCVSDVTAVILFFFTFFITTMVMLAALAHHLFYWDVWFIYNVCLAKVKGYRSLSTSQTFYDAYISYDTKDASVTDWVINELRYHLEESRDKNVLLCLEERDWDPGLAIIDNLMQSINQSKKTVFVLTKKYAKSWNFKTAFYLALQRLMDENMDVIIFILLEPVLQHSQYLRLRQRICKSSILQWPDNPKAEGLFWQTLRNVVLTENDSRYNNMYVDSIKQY
Procedure, shortened: as §1

human TLR9 = target: T3, human TLR9 (Homo sapiens, UniProt Q9NR96); experiment: TLR9 inhibition reporter assay (HEK-Blue SEAP reporter, ODN2006 stimulation); details: HEK-Blue cells overexpressing human TLR9, SEAP reporter, ODN2006 5 nM, 22 hour incubation
T3 construct: host or cells: HEK-Blue cells
T3 sequence (Q9NR96 26-1032): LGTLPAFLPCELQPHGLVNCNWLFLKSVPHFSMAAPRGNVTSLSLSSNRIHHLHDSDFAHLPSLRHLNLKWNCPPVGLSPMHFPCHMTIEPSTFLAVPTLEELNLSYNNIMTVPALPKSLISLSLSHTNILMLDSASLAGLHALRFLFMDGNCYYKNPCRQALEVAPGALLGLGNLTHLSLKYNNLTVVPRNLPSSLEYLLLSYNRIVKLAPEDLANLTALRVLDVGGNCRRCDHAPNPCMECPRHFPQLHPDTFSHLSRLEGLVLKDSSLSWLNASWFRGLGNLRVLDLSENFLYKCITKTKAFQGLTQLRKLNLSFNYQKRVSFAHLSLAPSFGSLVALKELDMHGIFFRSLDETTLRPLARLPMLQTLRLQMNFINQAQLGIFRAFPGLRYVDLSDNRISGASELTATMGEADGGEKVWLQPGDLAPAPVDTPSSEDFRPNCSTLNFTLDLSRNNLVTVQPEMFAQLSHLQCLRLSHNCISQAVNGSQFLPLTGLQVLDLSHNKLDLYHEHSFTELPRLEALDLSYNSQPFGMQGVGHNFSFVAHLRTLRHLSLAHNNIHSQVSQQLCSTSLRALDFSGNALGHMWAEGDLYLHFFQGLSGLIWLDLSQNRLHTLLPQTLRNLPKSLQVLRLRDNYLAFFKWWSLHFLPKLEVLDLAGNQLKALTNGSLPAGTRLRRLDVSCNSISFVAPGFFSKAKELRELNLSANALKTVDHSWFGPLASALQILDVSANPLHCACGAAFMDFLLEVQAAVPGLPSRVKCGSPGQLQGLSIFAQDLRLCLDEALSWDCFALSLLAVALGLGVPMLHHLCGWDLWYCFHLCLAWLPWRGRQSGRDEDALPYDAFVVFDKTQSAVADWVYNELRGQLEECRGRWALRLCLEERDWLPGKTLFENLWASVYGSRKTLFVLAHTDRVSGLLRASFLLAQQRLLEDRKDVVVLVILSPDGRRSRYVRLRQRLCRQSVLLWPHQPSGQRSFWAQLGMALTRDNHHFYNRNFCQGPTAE
Procedure, shortened: as §1

SMILES | IC50 (human TLR7) [µM] | IC50 (human TLR8) [µM] | IC50 (human TLR9) [µM]
CCc1cc(-c2[nH]c3ccc(C4CCNCC4)cc3c2C(C)C)c(C)n(C)c1=O [Example 25, 3-ethyl-5-(3-isopropyl-5-(piperidin-4-yl)-1H-indol-2-yl)-1,6-dimethylpyridin-2(1H)-one] | 0.0403 | 0.0078 | 1.37
CCn1cc(-c2[nH]c3ccc(C4CCNCC4)cc3c2C(C)C)c(C)c(C)c1=O [Example 26, 1-ethyl-5-(3-isopropyl-5-(piperidin-4-yl)-1H-indol-2-yl)-3,4-dimethylpyridin-2(1H)-one] | 0.012 | 0.0089 | 1.86
COc1cc(-c2[nH]c3ccc(C4CCNCC4)cc3c2C(C)C)c(C)n(C)c1=O [Example 28, 5-(3-isopropyl-5-(piperidin-4-yl)-1H-indol-2-yl)-3-methoxy-1,6-dimethylpyridin-2(1H)-one] | 0.207 | 0.174 | 1.21
COc1c(C)c(-c2[nH]c3ccc(C4CCNCC4)cc3c2C(C)C)cn(C)c1=O [Example 29, 5-(3-isopropyl-5-(piperidin-4-yl)-1H-indol-2-yl)-3-methoxy-1,4-dimethylpyridin-2(1H)-one] | 0.0141 | 0.0509 | 0.783
Cc1c(-c2[nH]c3ccc(C4CCNCC4)cc3c2C(C)C)cc(Cl)c(=O)n1C [Example 33, 3-chloro-5-(3-isopropyl-5-(piperidin-4-yl)-1H-indol-2-yl)-1,6-dimethylpyridin-2(1H)-one] | 0.0161 | 0.0126 | 0.922
CCc1cc(-c2[nH]c3ccc(C4CCNCC4)cc3c2C(C)C)c(C)n(CC)c1=O [Example 35, 1,3-diethyl-5-(3-isopropyl-5-(piperidin-4-yl)-1H-indol-2-yl)-6-methylpyridin-2(1H)-one] | 0.06 | 0.0068 | 0.574
Cc1cc(-c2[nH]c3ccc(C4CCNCC4)cc3c2C(C)C)cn(CC(C)C)c1=O [Example 36, 1-isobutyl-5-(3-isopropyl-5-(piperidin-4-yl)-1H-indol-2-yl)-3-methylpyridin-2(1H)-one] | 0.0096 | 0.0812 | 1.31
COC(=O)c1cc(-c2[nH]c3ccc(C4CCNCC4)cc3c2C(C)C)cn(C)c1=O [Example 37, methyl 5-(3-isopropyl-5-(piperidin-4-yl)-1H-indol-2-yl)-1-methyl-2-oxo-1,2-dihydropyridine-3-carboxylate] | 0.458 | 0.182 | 2.43
Cc1cc(-c2[nH]c3ccc(C4CCNCC4)cc3c2C(C)C)cn(CCCO)c1=O [Example 38, 1-(3-hydroxypropyl)-5-(3-isopropyl-5-(piperidin-4-yl)-1H-indol-2-yl)-3-methylpyridin-2(1H)-one] | 0.0512 | 0.0303 | 3.03
CC(C)c1c(-c2cc(C(F)(F)F)c(=O)n(C)c2)[nH]c2ccc(C3CCNCC3)cc12 [Example 41, 5-(3-isopropyl-5-(piperidin-4-yl)-1H-indol-2-yl)-1-methyl-3-(trifluoromethyl)pyridin-2(1H)-one] | 0.018 | 0.158 | 1.12

Now those with a lower IC50 (human TLR7), led by results:

IC50 (human TLR7) [µM] | IC50 (human TLR8) [µM] | IC50 (human TLR9) [µM] | SMILES
0.0084 | 0.0101 | 2.39 | Cc1cc(-c2[nH]c3ccc(C4CCNCC4)cc3c2C(C)C)cn(CCO)c1=O [Example 30, 1-(2-hydroxyethyl)-5-(3-isopropyl-5-(piperidin-4-yl)-1H-indol-2-yl)-3-methylpyridin-2(1H)-one]
0.0079 | 0.0079 | 3.18 | COCCn1cc(-c2[nH]c3ccc(C4CCNCC4)cc3c2C(C)C)cc(C)c1=O [Example 39, 5-(3-isopropyl-5-(piperidin-4-yl)-1H-indol-2-yl)-1-(2-methoxyethyl)-3-methylpyridin-2(1H)-one]
0.0071 | 0.048 | 1.46 | Cc1cc(-c2[nH]c3ccc(C4CCNCC4)cc3c2C(C)C)cn(CC2CC2)c1=O [Example 34, 1-(cyclopropylmethyl)-5-(3-isopropyl-5-(piperidin-4-yl)-1H-indol-2-yl)-3-methylpyridin-2(1H)-one]
0.0052 | 0.0169 | 4.45 | Cc1cc(-c2[nH]c3ccc(C4CCNCC4)cc3c2C(C)C)cn(CC(F)F)c1=O [Example 40, 1-(2,2-difluoroethyl)-5-(3-isopropyl-5-(piperidin-4-yl)-1H-indol-2-yl)-3-methylpyridin-2(1H)-one]
0.0018 | 0.0172 | 1.07 | CCn1cc(-c2[nH]c3ccc(C4CCNCC4)cc3c2C(C)C)cc(Cl)c1=O [Example 32, 3-chloro-1-ethyl-5-(3-isopropyl-5-(piperidin-4-yl)-1H-indol-2-yl) pyridin-2(1H)-one]
0.001 | 0.007 | 1.12 | Cc1c(-c2[nH]c3ccc(C4CCNCC4)cc3c2C(C)C)cn(C)c(=O)c1Cl [Example 31, 3-chloro-5-(3-isopropyl-5-(piperidin-4-yl)-1H-indol-2-yl)-1,4-dimethylpyridin-2(1H)-one]
